Reference: PubChem BioAssay (NCI)
Values joined by “and” are separate entries in the source; they are usually repeats but may differ in a detail not shown here. Identical values can stand only once.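 Step 1: Grow cells in 96-well plates. Step 2: Expose to compound for 48 hours at 5 concentrations. Step 3: Interpolate endpoints linearly; if unreached, use highest concentration. GI50 = concentration required for 50% inhibition of growth. TGI: concentration producing complete growth inhibition.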

Each compound was assayed on CAKI-1 renal (assay: inhibition of tumour cell growth, NCI panel, 48 h).

Question: Which GI50 does the source give for `CSc1nc(NC2OC(COC(C)=O)C(OC(C)=O)C(OC(C)=O)C2OC(C)=O)c(N=CC=Nc2c(NC3OC(COC(C)=O)C(OC(C)=O)C(OC(C)=O)C3OC(C)=O)nc(SC)n(C)c2=O)c(=O)n1C` (stereo not drawn) here?
Answer: The GI50 was over 50 µM.

Question: What about the TGI of the same compound?
Answer: Its TGI is over 100 µM.

Question: With `O=S(=O)(Nc1ccc(Cl)cc1Cl)c1ccc(-c2cnc(C3CC3)o2)cc1` as the compound, how does the GI50 read?
Answer: The GI50 was 0.505 µM.

Question: What about the TGI of the same compound?
Answer: Its TGI is 55.9 µM.

Question: Which results are given for `CCc1ccc(/C=C/c2ccc(O)c3ncccc23)[n+](C)c1`?
Answer: GI50: 39.2 µM; TGI: > 100 µM

Question: What does the source list for `Cc1ccc(Nc2oc(-c3ccccc3)nc2[P+](c2ccccc2)(c2ccccc2)c2ccccc2)cc1`?
Answer: GI50: 1.22 µM; TGI: 2.72 µM

Question: For `CS(=O)(=O)Nc1cc(-c2ccc3ncnc(Nc4c(Cl)ccc5c4OCO5)c3c2)cnc1Cl`, which GI50 is on record?
Answer: The GI50 was 0.053 µM.

Question: What about the TGI of the same compound?
Answer: The TGI was 0.869 µM.

Question: With `COc1ccccc1Nc1ncc(-c2ccccc2)o1` as the compound, how does the GI50 read?
Answer: Its GI50 is over 24 µM.

Question: And the TGI?
Answer: The TGI was over 25 µM.

Question: Which GI50 does the source give for `Nc1ccn(C2OC(CO)C(O)C2O)c(=O)n1` (stereo not drawn) here?
Answer: The GI50 was 0.107 µM.

Question: With `CN(C)c1ccc(N=Nc2ccccn2)c(O)c1` as the compound, how does the GI50 read?
Answer: Its GI50 is 0.344 µM.

Question: And the TGI?
Answer: The TGI was over 100 µM.

Question: `CN1CC[C@@H](c2c(O)cc(O)c3c(=O)cc(-c4ccc(C(F)(F)F)cc4Cl)oc23)[C@@H]1CO` was tested. Which GI50 did it give?
Answer: Its GI50 is 14.7 µM.

Question: What about the TGI of the same compound?
Answer: Its TGI is 39.8 µM.

These compounds were tested on BT-549 breast (assay: inhibition of tumour cell growth, NCI panel, 48 h).

Question: How did the GI50 turn out when `CN(C)C(=S)Sc1ccc([N+](=O)[O-])cc1[N+](=O)[O-]` was run?
Answer: Its GI50 is 3.22 µM.

Question: And the TGI?
Answer: The TGI was 9.93 µM.

Question: With `O=[P@@]1(c2ccccc2)O[C@H](COCc2ccccc2)[C@@H](OCc2ccccc2)[C@H](OCc2ccccc2)[C@H]1NCc1ccccc1` as the compound, how does the GI50 read?
Answer: Its GI50 is 2.89 µM.

Question: What about the TGI of the same compound?
Answer: Its TGI is 16.2 µM.

Question: Which GI50 does the source give for `CSc1ccccc1C#C/C=C\C#Cc1ccccc1N` here?
Answer: Its GI50 is 3.27 µM.

Question: And the TGI?
Answer: The TGI was 9.17 µM.

Question: How did the GI50 turn out when `COc1ccc(C(O)(CCC(C)C)C(CN2CCOCC2)c2ccc(Cl)cc2)cc1` (stereo not drawn) was run?
Answer: Its GI50 is 14.9 µM.

Question: And the TGI?
Answer: The TGI was 30 µM.

Question: With `Cn1c(=O)c(Oc2ccc(F)cc2)cc2cnc(NC3CCOCC3)nc21` as the compound, how does the GI50 read?
Answer: The GI50 was over 25 µM.

Question: And the TGI?
Answer: Its TGI is over 25 µM.

Question: With `CC1(C)N=C(N)N=C(N)N1c1ccc(CCCCc2ccc(Cl)c(S(=O)(=O)F)c2)c(Cl)c1` as the compound, how does the GI50 read?
Answer: The GI50 was 1.55 µM.

Question: And the TGI?
Answer: The TGI was 12.5 µM.

Question: For `Cc1cc2cc3c(=O)[nH]c(=O)[nH]c3nc2cc1C`, which TGI is on record?
Answer: The TGI was over 100 µM.

Question: `CCc1c(Cl)c(C)cc(O)c1Cl` was tested. Which TGI did it give?
Answer: The TGI was 42.8 µM.

Question: For `BrCc1cccc(C[P+](c2ccccc2)(c2ccccc2)c2ccccc2)c1`, which GI50 is on record?
Answer: Its GI50 is 34.5 µM.

Question: What about the TGI of the same compound?
Answer: The TGI was over 100 µM.

Question: With `C=COC(=O)N[C@H]1CCc2cc(OC)c(OC)c(OC)c2-c2ccc(SC)c(=O)cc21` as the compound, how does the TGI read?
Answer: The TGI was under 0.01 µM.

Question: How did the TGI turn out when `CN(C)c1ncnc2c1ncn2CCn1cnc2c(N(C)C)ncnc21` was run?
Answer: The TGI was over 100 µM.

Question: Which results are given for `CSc1nc(NC2OC(COC(C)=O)C(OC(C)=O)C(OC(C)=O)C2OC(C)=O)c(N=CC=Nc2c(NC3OC(COC(C)=O)C(OC(C)=O)C(OC(C)=O)C3OC(C)=O)nc(SC)n(C)c2=O)c(=O)n1C` (stereo not drawn)?
Answer: GI50: 37.5 µM; TGI: 50 µM and > 100 µM

Question: `O=S(=O)(Nc1ccc(Cl)cc1Cl)c1ccc(-c2cnc(C3CC3)o2)cc1` was tested. Which GI50 did it give?
Answer: Its GI50 is 0.663 µM.

Question: And the TGI?
Answer: The TGI was 36.3 µM.

Question: Which results are given for `CCc1ccc(/C=C/c2ccc(O)c3ncccc23)[n+](C)c1`?
Answer: GI50: 15.1 µM; TGI: > 100 µM

Question: Which GI50 does the source give for `Cc1ccc(Nc2oc(-c3ccccc3)nc2[P+](c2ccccc2)(c2ccccc2)c2ccccc2)cc1` here?
Answer: The GI50 was 1.41 µM.

Question: What about the TGI of the same compound?
Answer: Its TGI is 2.92 µM.

Question: For `CS(=O)(=O)Nc1cc(-c2ccc3ncnc(Nc4c(Cl)ccc5c4OCO5)c3c2)cnc1Cl`, which GI50 is on record?
Answer: The GI50 was 0.132 µM.

Question: And the TGI?
Answer: The TGI was 1.04 µM.

Question: `COc1ccccc1Nc1ncc(-c2ccccc2)o1` was tested. Which GI50 did it give?
Answer: The GI50 was over 25 µM.

Question: And the TGI?
Answer: Its TGI is over 25 µM.

Question: With `Nc1ccn(C2OC(CO)C(O)C2O)c(=O)n1` (stereo not drawn) as the compound, how does the GI50 read?
Answer: Its GI50 is 7.08 µM.

Question: What about the TGI of the same compound?
Answer: The TGI was over 500 µM.

Question: Which results are given for `CN(C)c1ccc(N=Nc2ccccn2)c(O)c1`?
Answer: GI50: 0.391 µM; TGI: > 100 µM

Question: How did the GI50 turn out when `CN1CC[C@@H](c2c(O)cc(O)c3c(=O)cc(-c4ccc(C(F)(F)F)cc4Cl)oc23)[C@@H]1CO` was run?
Answer: Its GI50 is 12.2 µM.

Question: What about the TGI of the same compound?
Answer: Its TGI is 25.9 µM.

The compounds below were run on A549 NSCLC (assay: inhibition of tumour cell growth, NCI panel, 48 h).

Question: Which results are given for `CN(C)C(=S)Sc1ccc([N+](=O)[O-])cc1[N+](=O)[O-]`?
Answer: GI50: 3.21 µM; TGI: 17.6 µM

Question: Which GI50 does the source give for `O=[P@@]1(c2ccccc2)O[C@H](COCc2ccccc2)[C@@H](OCc2ccccc2)[C@H](OCc2ccccc2)[C@H]1NCc1ccccc1` here?
Answer: Its GI50 is 3.04 µM.

Question: And the TGI?
Answer: Its TGI is over 100 µM.

Question: Which results are given for `CSc1ccccc1C#C/C=C\C#Cc1ccccc1N`?
Answer: GI50: 7.58 µM; TGI: 89.6 µM

Question: How did the GI50 turn out when `COc1ccc(C(O)(CCC(C)C)C(CN2CCOCC2)c2ccc(Cl)cc2)cc1` (stereo not drawn) was run?
Answer: Its GI50 is 11.6 µM.

Question: What about the TGI of the same compound?
Answer: The TGI was 35 µM.

Question: Which results are given for `Cn1c(=O)c(Oc2ccc(F)cc2)cc2cnc(NC3CCOCC3)nc21`?
Answer: GI50: > 25 µM; TGI: > 25 µM

Question: Which GI50 does the source give for `CC1(C)N=C(N)N=C(N)N1c1ccc(CCCCc2ccc(Cl)c(S(=O)(=O)F)c2)c(Cl)c1` here?
Answer: Its GI50 is 0.319 µM.

Question: And the TGI?
Answer: Its TGI is 3.98 µM.

Question: How did the TGI turn out when `Cc1cc2cc3c(=O)[nH]c(=O)[nH]c3nc2cc1C` was run?
Answer: The TGI was over 100 µM.

Question: `CCc1c(Cl)c(C)cc(O)c1Cl` was tested. Which TGI did it give?
Answer: The TGI was over 100 µM.

Question: With `BrCc1cccc(C[P+](c2ccccc2)(c2ccccc2)c2ccccc2)c1` as the compound, how does the GI50 read?
Answer: The GI50 was 42.3 µM.

Question: What about the TGI of the same compound?
Answer: Its TGI is over 100 µM.

Question: Which TGI does the source give for `C=COC(=O)N[C@H]1CCc2cc(OC)c(OC)c(OC)c2-c2ccc(SC)c(=O)cc21` here?
Answer: Its TGI is 72.7 µM.

Question: `CN(C)c1ncnc2c1ncn2CCn1cnc2c(N(C)C)ncnc21` was tested. Which TGI did it give?
Answer: Its TGI is over 100 µM.

Question: For `CSc1nc(NC2OC(COC(C)=O)C(OC(C)=O)C(OC(C)=O)C2OC(C)=O)c(N=CC=Nc2c(NC3OC(COC(C)=O)C(OC(C)=O)C(OC(C)=O)C3OC(C)=O)nc(SC)n(C)c2=O)c(=O)n1C` (stereo not drawn), which GI50 is on record?
Answer: The GI50 was over 50 µM.

Question: And the TGI?
Answer: The TGI was over 100 µM.

Question: What does the source list for `O=S(=O)(Nc1ccc(Cl)cc1Cl)c1ccc(-c2cnc(C3CC3)o2)cc1`?
Answer: GI50: 1.02 µM; TGI: > 100 µM

Question: With `CCc1ccc(/C=C/c2ccc(O)c3ncccc23)[n+](C)c1` as the compound, how does the GI50 read?
Answer: The GI50 was 0.0377 µM.

Question: What about the TGI of the same compound?
Answer: Its TGI is over 100 µM.

Question: For `Cc1ccc(Nc2oc(-c3ccccc3)nc2[P+](c2ccccc2)(c2ccccc2)c2ccccc2)cc1`, which GI50 is on record?
Answer: The GI50 was 0.938 µM.

Question: And the TGI?
Answer: The TGI was 3.23 µM.

Question: `CS(=O)(=O)Nc1cc(-c2ccc3ncnc(Nc4c(Cl)ccc5c4OCO5)c3c2)cnc1Cl` was tested. Which GI50 did it give?
Answer: Its GI50 is 0.255 µM.

Question: And the TGI?
Answer: Its TGI is 1.94 µM.

Question: Which results are given for `COc1ccccc1Nc1ncc(-c2ccccc2)o1`?
Answer: GI50: > 25 µM; TGI: > 25 µM

Question: With `Nc1ccn(C2OC(CO)C(O)C2O)c(=O)n1` (stereo not drawn) as the compound, how does the GI50 read?
Answer: The GI50 was 0.422 µM.

Question: What does the source list for `CN(C)c1ccc(N=Nc2ccccn2)c(O)c1`?
Answer: GI50: 0.478 µM; TGI: > 100 µM

Question: For `CN1CC[C@@H](c2c(O)cc(O)c3c(=O)cc(-c4ccc(C(F)(F)F)cc4Cl)oc23)[C@@H]1CO`, which GI50 is on record?
Answer: The GI50 was 23.9 µM.

Question: And the TGI?
Answer: Its TGI is 56.2 µM.
